Here are results for nine compounds from patent US8445502B2, “Pharmaceutical formulations comprising salts of a protein kinase inhibitor and methods of using same” (Astex Pharmaceuticals, Inc., priority 2007, dated 2013).

Where two headings read alike, the source gives them in different places.

One data set has as its system A549 lung cancer cells. Format: in vivo. To be noted: Day 26, 10 mg/kg IP in sterile saline, qd×5×3 wk (vehicle 43). As to the method: (§1) MP470 and MP470 HCl were tested against different tumor types in athymic nude mice as summarized below (Table 8). Various formulations and routes were evaluated. HT-29 colorectal cancer cells and SB-CL2 melanoma cells were implanted subcutaneously, while A549 lung cancer cells, MiaPaCa-2 pancreatic cancer cells, TT medullary thyroid cancer cells, and OVCAR-3 ovarian cancer cells were implanted […] in the hind flank of mice. All animals were allowed to develop medium-sized (80-125 mg) tumors, before initiation of dosing. Tumor volume and mouse bodyweight were followed over the course of the study.
A549 Lung Cancer Model—In 40 nude mice implanted intradermally with A549 lung cancer cells, animals were dosed with vehicle orally, MP470 in 100% corn oil orally, or 5-FU in sterile saline IP. […] […] While MP470 reduced tumor growth rates, treatment of these cells with 5-FU reduced the overall tumor growth rate per day further to 19.5 mm3/d on Day 26.
To determine whether MP470.HCl in combination with carboplatin increased the anti-tumor activity in xenograft tumors growing in vivo, the agents were administered alone and in combination and tumor growth was monitored. MP470.HCl (50 mg/kg) was combined with carboplatin (30 mg/kg) alone or carboplatin with taxol (20 mg/kg).

Data set [1] relates to Rad51 in A549 non-small cell lung cancer cells. Kind of data set: Rad51 protein level by Western blot in cells. The class given is cell-based. To be noted: 6.1 μM carboplatin, 24 hrs. As to the method:
Rad51 protein levels were also determined in A549 non-small cell lung cancer cells using combinations with DNA damaging agents. Cells were treated for 24 hrs with 6.1 μM (IC30 of carboplatin alone) carboplatin in combination with 0.71 μM or 3.82 μM MP470.HCl. Protein lysates were isolated from treated and non-treated cells, separated by SDS-PAGE, and transferred to nitrocellulose. […] The increase in Rad51 due to carboplatin treatment was reduced by 26% when treated in combination with 0.71 μM MP470.HCl and by 42% with 3.82 μM MP470.HCl

Another data set relates to NCI-H647 NSCLC cells. The data set can be described thus: Sensitization of NSCLC cells to carboplatin. Format: cell-based. To be noted: NCI-H647, single agent. Here is the method: (§2) The non-small cell lung cancer cell lines A549 and NCI-H647 were used for these experiments. […] The IC50 concentrations observed for carboplatin against both of these cell lines was consistent with this.
(§3) Two sub-IC50 doses of MP470.HCl were tested in combination with carboplatin to evaluate possible synergism between these agents and consequently a lower IC50 value for carboplatin in each of the cell lines.
(§4) MP470.HCl was able to dramatically decrease the IC50 of carboplatin in these cells.

The next data set concerns A549 NSCLC cells. The data set can be described thus: Sensitization of NSCLC cells to carboplatin. The class given is cell-based. Particulars: A549, single agent. Here is the method:
as §2, §3, §4

The next data set concerns DMS-114 SCLC cells. Kind of data set: Sensitization of SCLC cells to etoposide. The class given is cell-based. Particulars: Homo sapiens; DMS-114, single agent. Here is the method: (§5) Therefore, to determine if MP470 would increase sensitivity to etoposide treatment, SCLC cells were treated with the agents individually and in combination. […] Two sub-IC50 doses of MP470.HCl were tested in combination with etoposide to evaluate possible synergism and a resulting lower IC50 value for etoposide in each of the cell lines.

Another data set deals with DMS-153 SCLC cells. Kind of data set: Sensitization of SCLC cells to etoposide. The class given is cell-based. Particulars: Homo sapiens; DMS-153, single agent. Here is the method: as §5
A short description of data set [2]: Solubility of MP470 and its salts (Table 2). Format: physicochemical. To be noted: water.
The test system of data set [3] is OVCAR-3 ovarian cancer cells. The data set can be described thus: OVCAR-3 ovarian cancer tumor model in nude mice. The class given is in vivo. As to the method:
as §1
OVCAR-3 Ovarian Cancer Model—Forty-two nude mice were implanted subcutaneously with OVCAR-3 ovarian carcinoma, the hydrochloride salt of MP470 (MP470.HCl) was formulated in 100% corn oil and delivered orally. MP470.HCl, cisplatin, and irinotecan were administered to animals alone or in combination. When administered alone, MP470.HCl was given qd at 100 or 200 mg/kg, irinotecan was given q3d at 20 mg/kg, and cisplatin was given q7d at 5 mg/kg. In combination studies, 100 mg/kg MP470.HCl was given qd and combined with 20 mg/kg irinotecan given q3d or 5 mg/kg cisplatin given q7d. One animal in the 200 mg/kg MP470.HCl group died on Day 1, while five animals in the MP470.HCl/cisplatin combination group died (one on Day 5, Day 6, Day 7, Day, 20, and Day 27). Treatment with each individual agent (200 mg/kg MP470.HCl, 46.2 mm3/d; 20 mg/kg irinotecan, 38.53 mm3/d; 5 mg/kg cisplatin, 33.8 mm3/d) reduced the tumor growth rate below that of vehicle-treated mice (78.04 mm3/d). […] In contrast, when MP470.HCl and cisplatin were used in combination, the tumor growth rate was reduced to 10.22 mm3/d. However, the 100 mg/kg dose of MP470.HCl in combination with cisplatin caused enhanced toxicity and most animals in this group died during the 21-day treatment period. The enhanced toxicity was related to the level of the dose used, so a subsequent study was conducted using half the dose, 50 mg/kg/day as described below.

The conditions of data set [4]: rat, in vivo, po. As to the method:
Twenty-four rats were placed into four groups each consisting of three animals per sex. The animals were weighed the day before dosing, as well as just prior to dosing.
After intravenous infusion of MP470.HCl at 5 mg/kg, average MP470 peak plasma concentrations of 454.3 ng/mL for males and 370.7 ng/mL for females were attained at 0.083 hours (5 minutes), the first sampling point postdose. After oral administration of non-micronized MP470.HCl, peak plasma concentrations of MP470 were attained at 0.5-12 hours for Group 2 (25 mg/kg) and 4-12 hours for Group 3 (100 mg/kg, suspension). The extent of systemic exposure of rats to MP470, characterized by AUCO-∞, was approximately 3.8-fold and 2.9-fold higher in females than in males for Groups 2 and 3, respectively. Average AUCO-∞ values were higher at 100 mg/kg than at 25 mg/kg and the increases in AUCO-∞ were greater than dose-proportional.
After oral administration of micronized MP470.HCl (Group 4), peak plasma concentrations of MP470 were attained at 4-12 hours. The extent of systemic exposure of rats to MP470, characterized by AUCO-∞, was approximately 3.4-fold higher in females than in males for Group 4. The extent of exposure of rats to MP470, characterized by AUCO-∞, was 1.7-fold (males) and 1.4-fold (females) higher for non-micronized MP470 HCl (Group 3) than for micronized MP470 HCl (Group 4).

Data set [5] has as its system γ-H2AX levels in OVCAR-3 (ovarian carcinoma) cells. Kind of data set: DNA damage by γ-H2AX levels. Format: cell-based. Particulars: single agent 10 μM; control 0.5% DMSO medium. As to the method:
OVCAR-3 (ovarian carcinoma) cells were treated with MP470 (10 μM), MP470.HCl (10 μM), and/or topotecan (10 μM).

Take `O=c1[nH]cc(F)c(=O)[nH]1` [5-FU, 5-fluorouracil, reference compound]: the tumor growth rate in the data set with A549 lung cancer cells is on record as 19.5 mm3/d. The term IC50 denotes the point on the concentration scale where inhibition reaches its midpoint. Turning to `N.N.O=C([O-])C1(C(=O)[O-])CCC1.[Pt+2]` [Carboplatin, reference compound], in data set [1], the “increase of Rad51 levels over non-treatment levels” value was 12 fold. In addition, the IC50 is 173 µM in the data set with NCI-H647 NSCLC cells and 20.1 µM with A549 NSCLC cells.

On to `COc1cc([C@@H]2c3cc4c(cc3[C@@H](O[C@@H]3O[C@@H]5CO[C@@H](C)O[C@H]5[C@H](O)[C@H]3O)[C@H]3COC(=O)[C@H]23)OCO4)cc(OC)c1O` [Etoposide, reference compound], for which the IC50 with DMS-114 SCLC cells was 0.92 µM; with DMS-153 SCLC cells, 0.29 µM. Take `S=C(NCc1ccc2c(c1)OCO2)N1CCN(c2ncnc3c2oc2ccccc23)CC1` [MP470 Esylate]: the Solubility in water in data set [2] came out at 5.89 µg/mL. Regarding `N.N.[Cl][Pt][Cl]` [cisplatin, reference compound], in data set [3] (5 mg/kg q7d (vehicle 78.04)), the tumor growth rate was 33.8 mm3/d.

Turning to `CCc1c2c(nc3ccc(OC(=O)N4CCC(N5CCCCC5)CC4)cc13)-c1cc3c(c(=O)n1C2)COC(=O)[C@]3(O)CC` [irinotecan, reference compound], the tumor growth rate in [3] (20 mg/kg q3d (vehicle 78.04)) is 38.53 mm3/d.

Turning to `Cl.S=C(NCc1ccc2c(c1)OCO2)N1CCN(c2ncnc3c2oc2ccccc23)CC1` [micronized MP470.HCl], in [4] (100 mg/kg), the “AUC0-∞ in females relative to males” value is “approximately 3.4 fold” and the “time of peak plasma concentration” value fell in the range of 4 to 12 h. For `Cl.S=C(NCc1ccc2c(c1)OCO2)N1CCN(c2ncnc3c2oc2ccccc23)CC1` [non-micronized MP470.HCl], the “AUC0-∞ in females relative to males” value in data set [4] (25 mg/kg) is on record as “approximately 3.8 fold”; in data set [4] (100 mg/kg), about 2.9 fold. The results for the “time of peak plasma concentration” value in data set [4] (25 mg/kg) and in data set [4] (100 mg/kg) were 0.5 to 12 h and 4 to 12 h, respectively. As for `CC[C@@]1(O)C(=O)OCc2c1cc1n(c2=O)Cc2cc3c(CN(C)C)c(O)ccc3nc2-1` [topotecan, reference compound], in data set [5], the “Increase in DNA damage (γ-H2AX) over control” value was 65%.
